In patent US8859580B2 (Boehringer Ingelheim International GmbH, priority 2007, dated 2014) one finds IC50 data, which are given here for 21 compounds.

Structures are written as SMILES. Where two headings read alike, the source gives them in different places.

In this test the target is T1, 11β-HSD1 (Homo sapiens, UniProt P28845).
T1 construct: detecting cortisol generated from cortisterone by human liver microsomes; from tissue; host or cells: human liver microsomes
In words: In vitro inhibition of 11β-HSD1, HTRF detection of cortisol generated from cortisone by human liver microsomes. The class given is biochemical. The settings on record: 1 hour at 37° C., pH 6.0, NADPH 200 μM, cortisone 80 nM, inhibition relative to carbenoxolone signal. Put shortly: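 Cortisol formed from cortisone by human liver microsomes quantified by competitive HTRF immunoassay (XL665-cortisol, Eu-cryptate anti-cortisol antibody), 2 h detection, Em665/Em615 ratio converted via cortisol calibration curve. Percent inhibition relative to carbenoxolone signal; IC50 from curves.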
For orientation: In TR-FRET formats the signal depends on donor and acceptor labels being close together.

T1 sequence (P28845 whole entry): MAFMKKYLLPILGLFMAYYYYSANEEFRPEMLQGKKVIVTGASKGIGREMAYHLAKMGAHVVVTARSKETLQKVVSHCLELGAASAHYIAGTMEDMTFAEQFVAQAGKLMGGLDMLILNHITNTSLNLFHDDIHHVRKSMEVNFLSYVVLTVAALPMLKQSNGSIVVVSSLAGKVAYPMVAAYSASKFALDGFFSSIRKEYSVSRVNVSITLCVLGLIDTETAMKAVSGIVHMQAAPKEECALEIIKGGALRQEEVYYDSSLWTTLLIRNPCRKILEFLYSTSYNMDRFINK

Usually IC50 stands for the concentration that gives 50% inhibition. In turn, `Cc1nc2cc3c(cc2[nH]1)[C@]1(C)CCN(C(=O)c2ccc4nc[nH]c4c2)[C@H](C3)C1(C)C` [Example 238, (3H-Benzoimidazol-5-yl)-[(6R,10S)-5,6,7,8,9,10-hexahydro-2,10,12,12-tetramethyl-6,10-methano-1H-imidazo[5,4-i][3]benzazocin-7-yl]-methanone] displayed an IC50 (11β-HSD IC50 (nM)) of 24 nM.

For `CC1(C)[C@H]2Cc3cc4nc[nH]c4cc3[C@]1(C)CCN2C(=O)c1ccc2nc[nH]c2c1` [Example 239, (3H-Benzoimidazol-5-yl)-[(6R,10S)-5,6,7,8,9,10-hexahydro-10,12,12-trimethyl-6,10-methano-1H-imidazo[5,4-i][3]benzazocin-7-yl]-methanone], for the setting “11β-HSD IC50 (nM)”, inhibition was half-maximal at 24 nM (IC50).

Take `Cn1cnc2cc3c(cc21)C[C@H]1N(C(=O)c2ccc4nc[nH]c4c2)CC[C@]3(C)C1(C)C` [Example 240, (3H-Benzoimidazol-5-yl)-[(6R,10S)-5,6,7,8,9,10-hexahydro-3,10,12,12-tetramethyl-6,10-methano-imidazo[4,5-i][3]benzazocin-7-yl]-methanone]: the IC50 (11β-HSD IC50 (nM)) came out at 51 nM.

The compound `Cn1cnc2cc3c(cc21)[C@]1(C)CCN(C(=O)c2ccc4nc[nH]c4c2)[C@H](C3)C1(C)C` [Example 241, (3H-Benzoimidazol-5-yl)-[(6R,10S)-5,6,7,8,9,10-hexahydro-1,10,12,12-tetramethyl-6,10-methano-imidazo[5,4-i][3]benzazocin-7-yl]-methanone] displayed an IC50 (11β-HSD IC50 (nM)) of 204 nM.

`Cc1nc2cc3c(cc2n1C)[C@]1(C)CCN(C(=O)c2ccc4nc[nH]c4c2)[C@H](C3)C1(C)C` [Example 242, (3H-Benzoimidazol-5-yl)-[(6R,10S)-5,6,7,8,9,10-hexahydro-1,2,10,12,12-pentamethyl-6,10-methano-imidazo[5,4-i][3]benzazocin-7-yl]-methanone] registered an IC50 (11β-HSD IC50 (nM)) of 547 nM.

For the setting “11β-HSD IC50 (nM)”, `Cc1nc2cc3c(cc2n1C)C[C@H]1N(C(=O)c2ccc4nc[nH]c4c2)CC[C@]3(C)C1(C)C` [Example 243, (3H-Benzoimidazol-5-yl)-[(6R,10S)-5,6,7,8,9,10-hexahydro-2,3,10,12,12-pentamethyl-6,10-methano-imidazo[4,5-i][3]benzazocin-7-yl]-methanone] displayed an IC50 of 113 nM.

`O=C(c1ccc2nc[nH]c2c1)N1CCC2CC1Cc1c2[nH]c2ccccc12` (stereo not drawn) [Example 245, (3H-Benzoimidazol-5-yl)-(2,3,4,5,6,7-hexahydro-2,6-methano-azocino[5,4-b]indol-3-yl)-methanone]: under “read-out: 11β-HSD IC50”, the IC50 is 257 nM.

In turn, `C[C@@H]1[C@@H]2Cc3ccc(O)cc3[C@@]1(C)CCN2C(=O)c1ccc2nc[nH]c2c1` [Example 246, (3H-Benzoimidazol-5-yl)-[(2S,6S,11S)-8-hydroxy-6,11-dimethyl-1,2,5,6-tetrahydro-4H-2,6-methano-benzo[d]azocin-3-yl)-methanone] registered an IC50 (11β-HSD IC50 (nM)) of 637 nM.

On to `C[C@H]1[C@H]2Cc3ccc(O)cc3[C@]1(C)CCN2C(=O)c1ccc2nc[nH]c2c1` [Example 247, (3H-Benzoimidazol-5-yl)-[(2R,6R,11R)-8-hydroxy-6,11-dimethyl-1,2,5,6-tetrahydro-4H-2,6-methano-benzo[d]azocin-3-yl)-methanone], for which, where the note is “11β-HSD IC50 (nM)”, half-maximal inhibition (IC50) was put at 190 nM.

For the setting “11β-HSD IC50 (nM)”, `Cc1ccc2[nH]cc(C(=O)N3CC[C@@]4(C)c5cccc(O)c5C[C@@H]3C4(C)C)c2c1` [Example 248, [(2R,6S)-10-Hydroxy-6,11,11-trimethyl-1,2,5,6-tetrahydro-4H-2,6-methano-benzo[d]azocin-3-yl)-(5-methyl-1H-indol-3-yl)-methanone] gave an IC50 of 1510 nM.

`C[C@@H]1[C@H]2Cc3ccc(-c4ccccc4)cc3[C@]1(C)CCN2C(=O)c1ccc2nc[nH]c2c1` [Example 249, (3H-Benzoimidazol-5-yl)-[(2R,6R,11S)-6,11-dimethyl-8-phenyl-1,2,5,6-tetrahydro-4H-2,6-methano-benzo[d]azocin-3-yl)-methanone]: where the note is “11β-HSD IC50 (nM)”, it took 265 nM to reach half-maximal inhibition (IC50).

`C[C@@H]1[C@H]2Cc3ccc(-c4cccnc4)cc3[C@]1(C)CCN2C(=O)c1ccc2nc[nH]c2c1` [Example 250, (3H-Benzoimidazol-5-yl)-[(2R,6R,11S)-6,11-dimethyl-8-pyridin-3-yl-1,2,5,6-tetrahydro-4H-2,6-methano-benzo[d]azocin-3-yl]-methanone] gave a half-maximal inhibitory concentration (IC50) (11β-HSD IC50 (nM)) of 53 nM.

As to `C[C@@H]1[C@H]2Cc3ccc(-c4ccncc4)cc3[C@]1(C)CCN2C(=O)c1ccc2nc[nH]c2c1` [Example 251, (3H-Benzoimidazol-5-yl)-[(2R,6R,11S)-6,11-dimethyl-8-pyridin-4-yl-1,2,5,6-tetrahydro-4H-2,6-methano-benzo[d]azocin-3-yl]-methanone], the IC50 (11β-HSD IC50 (nM)) was 66 nM.

Take `C[C@@H]1[C@H]2Cc3ccc(-c4cncnc4)cc3[C@]1(C)CCN2C(=O)c1ccc2nc[nH]c2c1` [Example 252, (3H-Benzoimidazol-5-yl)-[(2R,6R,11S)-6,11-dimethyl-8-pyrimidin-5-yl-1,2,5,6-tetrahydro-4H-2,6-methano-benzo[d]azocin-3-yl]-methanone]: the IC50 (11β-HSD IC50 (nM)) came out at 61 nM.

In turn, `Cc1cnc2cc3c(cc2n1)C[C@H]1N(C(=O)c2ccc4nc[nH]c4c2)CC[C@]3(C)C1(C)C` [Example 254, (3H-Benzoimidazol-5-yl)-[(7R,11S)-6,7,8,9,10,11-hexahydro-3,11,13,13-tetramethyl-7,11-methano-pyrazino[2,3-i][3]benzazocin-8-yl]-methanone] displayed an IC50 (11β-HSD IC50 (nM)) of 742 nM.

With `Cc1cnc2cc3c(cc2n1)[C@]1(C)CCN(C(=O)c2ccc4nc[nH]c4c2)[C@H](C3)C1(C)C` [Example 255, (3H-Benzoimidazol-5-yl)-[(7R,11S)-6,7,8,9,10,11-hexahydro-2,11,13,13-tetramethyl-7,11-methano-pyrazino[2,3-i][3]benzazocin-8-yl]-methanone], the IC50 (11β-HSD IC50 (nM)) was found to be 742 nM.

As to `Cn1cc(C(=O)N2CC[C@@]3(C)c4ccccc4C[C@@H]2C3(C)C)c2ccccc21` [Example 256, (1-Methyl-1H-indol-3-yl)-[(2R,6S)-6,11,11-trimethyl-1,2,5,6-tetrahydro-4H-2,6-methano-benzo[d]azocin-3-yl]-methanone], the IC50 (11β-HSD IC50 (nM)) amounted to 222 nM.

`Cn1nnc2cc3c(cc21)[C@]1(C)CCN(C(=O)c2ccc4nc[nH]c4c2)[C@H](C3)C1(C)C` [Example 257, (3H-Benzoimidazol-5-yl)-[(6R,10S)-5,6,7,8,9,10-hexahydro-1,10,12,12-tetramethyl-6,10-methano-triazolo[5,4-i][3]benzazocin-7-yl]-methanone] yielded an IC50 (11β-HSD IC50 (nM)) of 209 nM.

`Cn1nnc2cc3c(cc21)C[C@H]1N(C(=O)c2ccc4nc[nH]c4c2)CC[C@]3(C)C1(C)C` [Example 258, (3H-Benzoimidazol-5-yl)-[(6R,10S)-5,6,7,8,9,10-hexahydro-3,10,12,12-tetramethyl-6,10-methano-triazolo[4,5-i][3]benzazocin-7-yl]-methanone] yielded an IC50 (11β-HSD IC50 (nM)) of 33 nM.

On to `CC1(C)[C@H]2Cc3ccccc3[C@]1(C)CCN2C(=O)c1c[nH]c2ccccc12` [Example 259, (1H-Indol-3-yl)-[(2R,6S)-6,11,11-trimethyl-1,2,5,6-tetrahydro-4H-2,6-methano-benzo[d]azocin-3-yl]-methanone], for which 115 nM corresponded to half-maximal inhibition (11β-HSD IC50 (nM)) (IC50).

As for `CC(O)(c1cccc(C(=O)N2CC[C@@]3(C)c4cccc(O)c4C[C@@H]2C3(C)C)c1)C(F)(F)F` (stereo partly drawn) [Example 260, [(2R,6S)-10-Hydroxy-6,11,11-trimethyl-1,2,5,6-tetrahydro-4H-2,6-methano-benzo[d]azocin-3-yl]-[3-(2,2,2-trifluoro-1-hydroxy-1-methyl-ethyl)-phenyl]-methanone], the half-maximal inhibitory concentration (IC50) (11β-HSD IC50 (nM)) is 181 nM.
